Our source for the IC50 and Ki values is ChEMBL document CHEMBL1909046, “DrugMatrix in vitro pharmacology data”.

Data set [1] is described as follows: DRUGMATRIX: Calcium Channel Type L, Phenylalkylamine radioligand binding (ligand: [3H] (-)-Desmethoxyverapamil (D-888)). The class given is cell membranes, Rattus norvegicus, Wistar, Brain, Membrane. Conditions: Not Active = under 50% inhibition at 10 µM; for pIC50: read-out: IC50; for pKi: read-out: Ki.
Data set [2] concerns the target T1, 3-hydroxy-3-methylglutaryl-coenzyme A reductase (Homo sapiens, UniProt P04035).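 Further: enzyme inhibition assay of HMG-CoA reductase using radiolabeled [14C]HMG-CoA as substrate; in other assays of this panel Not Active means under 50% inhibition at 10 µM.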
T1 sequence (P04035 whole entry): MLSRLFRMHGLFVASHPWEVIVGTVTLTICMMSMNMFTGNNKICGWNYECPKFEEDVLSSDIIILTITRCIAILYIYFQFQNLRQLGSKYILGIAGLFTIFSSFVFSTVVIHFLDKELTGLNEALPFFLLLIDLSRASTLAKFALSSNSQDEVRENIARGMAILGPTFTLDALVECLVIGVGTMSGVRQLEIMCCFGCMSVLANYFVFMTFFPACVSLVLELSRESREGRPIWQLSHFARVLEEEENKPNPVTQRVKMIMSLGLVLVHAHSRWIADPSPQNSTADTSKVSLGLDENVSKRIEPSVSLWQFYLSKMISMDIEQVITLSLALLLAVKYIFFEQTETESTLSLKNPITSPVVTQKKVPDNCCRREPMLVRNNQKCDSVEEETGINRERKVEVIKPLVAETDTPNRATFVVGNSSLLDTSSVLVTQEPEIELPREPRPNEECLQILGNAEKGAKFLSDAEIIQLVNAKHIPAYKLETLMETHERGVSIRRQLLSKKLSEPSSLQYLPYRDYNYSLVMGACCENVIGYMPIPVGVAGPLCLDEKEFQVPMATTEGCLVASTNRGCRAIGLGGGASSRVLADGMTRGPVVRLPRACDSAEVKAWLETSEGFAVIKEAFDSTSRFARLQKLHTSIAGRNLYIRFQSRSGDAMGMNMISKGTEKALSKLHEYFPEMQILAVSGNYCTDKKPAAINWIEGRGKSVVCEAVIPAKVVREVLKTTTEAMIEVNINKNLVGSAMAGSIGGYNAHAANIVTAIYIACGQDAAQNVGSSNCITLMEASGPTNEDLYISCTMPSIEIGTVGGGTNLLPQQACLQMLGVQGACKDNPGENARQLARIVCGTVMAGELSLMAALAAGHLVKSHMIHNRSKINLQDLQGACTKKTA
More on the design: species or system Escherichia coli.

For data set [3], the target named is Receptor tyrosine-protein kinase erbB-2 (Homo sapiens, UniProt P04626). Put plainly: biochemical. Conditions: insect cells. The data set is classed as cell-based, Insect cells.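 Further: inhibition of HER2 kinase enzyme activity, measured with Poly(Glu:Tyr) as the phosphorylation substrate; in other assays of this panel Not Active means under 50% inhibition at 10 µM.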
For the next data set, the target named is T2, Cytochrome P450 1A2 (Homo sapiens, UniProt P05177). Further: in other assays of this panel Not Active means under 50% inhibition at 10 µM.
T2 sequence (P05177 whole entry): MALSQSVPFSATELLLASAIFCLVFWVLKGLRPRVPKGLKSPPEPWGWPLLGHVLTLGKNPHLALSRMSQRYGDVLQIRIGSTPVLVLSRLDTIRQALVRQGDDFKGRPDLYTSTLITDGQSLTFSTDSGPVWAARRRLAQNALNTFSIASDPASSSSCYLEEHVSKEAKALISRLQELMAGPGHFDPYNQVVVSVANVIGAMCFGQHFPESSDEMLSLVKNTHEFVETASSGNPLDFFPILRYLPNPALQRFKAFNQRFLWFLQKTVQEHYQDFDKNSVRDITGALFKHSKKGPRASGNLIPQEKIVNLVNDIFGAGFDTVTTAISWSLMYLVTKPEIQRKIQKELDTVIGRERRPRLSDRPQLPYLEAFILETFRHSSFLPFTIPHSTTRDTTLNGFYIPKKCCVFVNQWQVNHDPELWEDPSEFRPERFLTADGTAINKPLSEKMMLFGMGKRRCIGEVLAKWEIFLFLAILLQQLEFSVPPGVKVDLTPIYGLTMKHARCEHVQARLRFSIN
Conditions: bti-tn-5b1-4.

The target of another data set is T3, B2 bradykinin receptor (Homo sapiens, UniProt P30411). Further: in other assays of this panel Not Active means under 50% inhibition at 10 µM.
T3 sequence (P30411 whole entry): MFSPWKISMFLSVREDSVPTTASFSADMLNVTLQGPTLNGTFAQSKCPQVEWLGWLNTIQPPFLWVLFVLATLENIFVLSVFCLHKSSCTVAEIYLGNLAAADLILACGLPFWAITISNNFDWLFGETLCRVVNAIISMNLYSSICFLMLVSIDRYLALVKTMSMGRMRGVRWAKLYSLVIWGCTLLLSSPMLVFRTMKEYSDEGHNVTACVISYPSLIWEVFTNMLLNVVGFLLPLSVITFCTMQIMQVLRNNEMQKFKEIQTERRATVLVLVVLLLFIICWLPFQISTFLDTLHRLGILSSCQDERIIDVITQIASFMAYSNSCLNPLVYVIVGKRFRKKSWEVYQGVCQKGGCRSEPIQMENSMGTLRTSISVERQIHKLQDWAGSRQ
The class given is cell membranes, Membrane. The following applies: chem-1.

A further data set deals with T4, Substance-K receptor (Homo sapiens, UniProt P21452).
T4 sequence (P21452 whole entry): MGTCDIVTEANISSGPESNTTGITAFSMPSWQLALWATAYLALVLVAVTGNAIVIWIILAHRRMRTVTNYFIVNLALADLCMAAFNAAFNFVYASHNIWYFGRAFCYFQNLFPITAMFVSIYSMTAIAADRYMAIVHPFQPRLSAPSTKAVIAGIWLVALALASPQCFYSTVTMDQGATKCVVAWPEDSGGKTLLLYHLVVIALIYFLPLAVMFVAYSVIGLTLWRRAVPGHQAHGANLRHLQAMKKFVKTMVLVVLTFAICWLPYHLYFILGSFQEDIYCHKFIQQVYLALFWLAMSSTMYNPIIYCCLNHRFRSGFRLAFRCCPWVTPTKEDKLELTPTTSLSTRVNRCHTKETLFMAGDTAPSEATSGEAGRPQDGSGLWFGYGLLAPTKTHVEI
The class given is cell membranes, CHO, Membrane. The following applies: cho.

pIC50, pKi: −log10 of the molar value.

Turning to `C[C@](N)(Cc1ccc(O)c(O)c1)C(=O)O` [METHYLDOPA], the IC50 entry (in data set [1]; in data set [2]; in data set [3]; on Cytochrome P450 1A2; against B2 bradykinin receptor; on Substance-K receptor) was “Not Active” in each case. Also, the Ki result (in data set [1]; at Cytochrome P450 1A2) was “Not Active” in each case.

As for `C[C@]12CCC(=O)C=C1CC[C@@H]1[C@@H]2CC[C@@]2(C)[C@H]1CC[C@]2(C)O` [METHYLTESTOSTERONE], the IC50 entry (in data set [1]; in data set [2]; in data set [3]; on Cytochrome P450 1A2; against B2 bradykinin receptor; against Substance-K receptor) was “Not Active” each time. Also, the Ki result (in data set [1]; at Cytochrome P450 1A2) was “Not Active” in each case.

Take `Cc1ccccc1N1C(=O)c2cc(S(N)(=O)=O)c(Cl)cc2NC1C` (stereo not given) [METOLAZONE]: the IC50 entry (in data set [1]; in data set [2]; in data set [3]; at Cytochrome P450 1A2; at B2 bradykinin receptor; against Substance-K receptor) was “Not Active” in each case. The Ki result (in data set [1]; on Cytochrome P450 1A2) was “Not Active” each time.

For `COCCc1ccc(OCC(O)CNC(C)C)cc1` (stereo not given) [METOPROLOL], the IC50 result (in data set [1]; in data set [2]; in data set [3]; against Cytochrome P450 1A2; at B2 bradykinin receptor; against Substance-K receptor) was “Not Active” each time. The Ki entry (in data set [1]; at Cytochrome P450 1A2) was “Not Active” throughout.

Regarding `CCn1cc(C(=O)O)c(=O)c2cc(F)c(N3CCNCC3)cc21` [NORFLOXACIN], the IC50 entry (in data set [1]; in data set [2]; in data set [3]; on Cytochrome P450 1A2; against B2 bradykinin receptor; against Substance-K receptor) was “Not Active” throughout. In addition, the Ki entry (in data set [1]; at Cytochrome P450 1A2) was “Not Active” each time.

With `NC1=NC(=O)C(c2ccccc2)O1` (stereo not given) [PEMOLINE], the IC50 entry (in data set [1]; in data set [2]; in data set [3]; on Cytochrome P450 1A2; on B2 bradykinin receptor; against Substance-K receptor) was “Not Active” throughout. Moreover, the Ki entry (in data set [1]; at Cytochrome P450 1A2) was “Not Active” each time.

For `Nc1nc2c(ncn2CCC(CO)CO)c(=O)[nH]1` [PENCICLOVIR], the IC50 result (in data set [1]; in data set [2]; in data set [3]; on Cytochrome P450 1A2; against B2 bradykinin receptor; at Substance-K receptor) was “Not Active” throughout. Moreover, the Ki entry (in data set [1]; on Cytochrome P450 1A2) was “Not Active” in each case.

For the compound `C=C(C)C1(O)OC(=O)C=C1OC` (stereo not given) [PENICILLIC ACID], the IC50 entry (in data set [1]; in data set [2]; in data set [3]; at Cytochrome P450 1A2; on B2 bradykinin receptor; at Substance-K receptor) was “Not Active” each time. Also, the Ki result (in data set [1]; at Cytochrome P450 1A2) was “Not Active” throughout.

On to `CCCN1C[C@H](CSC)C[C@@H]2c3cccc4[nH]cc(c34)C[C@H]21` [PERGOLIDE], for which the pIC50 in data set [1] was 6.04. Also, the pKi in data set [1] is 6.05. The IC50 result (in data set [2]; in data set [3]; at Cytochrome P450 1A2; on B2 bradykinin receptor; against Substance-K receptor) was “Not Active” throughout. Also, the Ki entry at Cytochrome P450 1A2 is “Not Active”.

Regarding `C1CCC(C(CC2CCCCN2)C2CCCCC2)CC1` (stereo not given) [PERHEXILINE], the negative logarithm of the IC50 (pIC50) in data set [1] was 5.87. In data set [1], the pKi was 5.88. Also, the IC50 entry (in data set [2]; in data set [3]; at Cytochrome P450 1A2; against B2 bradykinin receptor; at Substance-K receptor) was “Not Active” in each case. For the same compound, the Ki result on Cytochrome P450 1A2 was “Not Active”.

For the compound `CCOc1ccc(NC(C)=O)cc1` [PHENACETIN], the IC50 entry (in data set [1]; in data set [2]; in data set [3]; against Cytochrome P450 1A2; on B2 bradykinin receptor; against Substance-K receptor) was “Not Active” each time. In addition, the Ki entry (in data set [1]; on Cytochrome P450 1A2) was “Not Active” in each case.

With `Cc1ccc(N(CC2=NCCN2)c2cccc(O)c2)cc1` [PHENTOLAMINE], the pIC50 in data set [1] is 6.13. For the same compound, in data set [1], the pKi is 6.14. The IC50 entry (in data set [2]; in data set [3]; at Cytochrome P450 1A2; at B2 bradykinin receptor; against Substance-K receptor) was “Not Active” in each case. Moreover, at Cytochrome P450 1A2, the Ki result is “Not Active”.

As to `CNNCc1ccc(C(=O)NC(C)C)cc1` [PROCARBAZINE], the IC50 entry (in data set [1]; in data set [2]; in data set [3]; on Cytochrome P450 1A2; at B2 bradykinin receptor; against Substance-K receptor) was “Not Active” each time. Moreover, the Ki result (in data set [1]; at Cytochrome P450 1A2) was “Not Active” in each case.

`CC(O)CO` (stereo not given) [PROPYLENE GLYCOL]: the IC50 entry (in data set [1]; in data set [2]; in data set [3]; against Cytochrome P450 1A2; on B2 bradykinin receptor; at Substance-K receptor) was “Not Active” in each case. For the same compound, the Ki entry (in data set [1]; at Cytochrome P450 1A2) was “Not Active” throughout.

As for CADMIUM ACETATE, the IC50 result (in data set [1]; in data set [2]; against Cytochrome P450 1A2; on B2 bradykinin receptor; at Substance-K receptor) was “Not Active” each time. In addition, the Ki entry (in data set [1]; in data set [2]; at Cytochrome P450 1A2; at B2 bradykinin receptor; on Substance-K receptor) was “Not Active” each time. Also, the pIC50 in data set [3] (read-out: IC50) was 5.93.

Consider LEAD (II) ACETATE, for which the IC50 result (in data set [1]; in data set [2]; in data set [3]; against Cytochrome P450 1A2; against B2 bradykinin receptor; at Substance-K receptor) was “Not Active” throughout. Moreover, the Ki result (in data set [1]; in data set [2]; in data set [3]; on Cytochrome P450 1A2; on B2 bradykinin receptor; at Substance-K receptor) was “Not Active” throughout.

For orientation: pIC50 means −log10 of the IC50, conventionally taken in molar units. For orientation: pKi means the Ki on a negative log10 scale, so that one unit is a factor of ten.
